Reference: ChEMBL document CHEMBL1121522, “Binding specificities of adenosine aminohydrolase from calf intestinal mucosa with dialdehydes derived from hexofuranosyladenine nucleosides” (J Med Chem, 1980)

Experiments:
[1] = target: T1, Adenosine deaminase (Bos taurus, UniProt P56658); test: Inhibition constant against Adenosine deaminase was determined from calf intestinal mucosa
T1 sequence (P56658 whole entry): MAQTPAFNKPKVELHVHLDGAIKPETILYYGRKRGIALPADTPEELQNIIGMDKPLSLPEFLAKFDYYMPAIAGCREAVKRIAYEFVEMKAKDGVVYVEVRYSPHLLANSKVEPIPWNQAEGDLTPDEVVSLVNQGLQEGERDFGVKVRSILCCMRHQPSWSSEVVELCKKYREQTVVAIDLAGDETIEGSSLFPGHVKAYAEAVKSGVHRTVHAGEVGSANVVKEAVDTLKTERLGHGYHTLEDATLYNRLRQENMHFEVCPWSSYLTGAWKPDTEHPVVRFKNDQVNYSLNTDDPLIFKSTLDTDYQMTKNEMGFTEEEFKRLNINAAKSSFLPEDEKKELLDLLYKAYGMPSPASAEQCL

[2] = system: adenosine aminohydrolase (adenosine deaminase); test: Kinetic Constant (Km) against Adenosine Aminohydrolase was determined from calf intestinal mucosa; format: ADME, Bos taurus; conditions: cattle
[3] = species: Bos taurus; test: Kinetic constant (Vmax) against Adenosine Aminohydrolase was determined from calf intestinal mucosa; format: ADME; conditions: cattle, in vitro

Ki [1]	Km [2]	Vmax [3]	Structure (SMILES)
370 µM	140 µM	0.41 µmol/min/mg	CC(O)[C@H](C=O)O[C@@H](C=O)n1cnc2c(N)ncnc21 (stereo partly drawn)
430 µM	350 µM	0.46 µmol/min/mg	CC(O)[C@@H](C=O)O[C@@H](C=O)n1cnc2c(N)ncnc21 (stereo partly drawn)
50 µM	–	–	C=C[C@@H](C=O)O[C@@H](C=O)n1cnc2c(N)ncnc21
7 µM	–	–	C=C[C@H](C=O)O[C@H](C=O)n1cnc2c(N)ncnc21
